Experimental data as given in patent publication US5633382A, “Histamine H3 -receptor antagonists and therapeutic uses thereof” (The University of Toledo, priority 1994, dated 1997).

What was measured:
[1] = test system: H3 receptors in the cortex; test: Blood-brain barrier penetration by ex vivo binding of [3H]-Nα-methylhistamine to cortex homogenate; type: in vivo, rat
Protocol: Blood-brain barrier penetration in rats was assessed by an ex vivo binding procedure. Young adult male Long-Evans rats were injected i.p. with saline or H3 antagonists in saline. At various times after injection animals were sacrificed, the cortex was removed, homogenized in 50 mM Na/K-phosphate buffer, pH 7.4, and the binding of 1 nM [^3 H]-N^α -methylhistamine was measured using 400 μg protein of the homogenate. Nonspecific binding was accounted for by the inclusion of excess thioperamide in some samples. Under these conditions, the binding was approximately 90% specific.

[2] = Behavioral effects (sleeping) after i.p. injection in mice; type: in vivo, mouse
histamine H3 -receptor = test: Reversal of the soporific effect of (R)α-methylhistamine in mice; type: in vivo, mouse
Protocol: The overall strategy to show central nervous system antagonist activity was to challenge effects of the agonist (R)α-methylhistamine. Therefore, the first objective was to establish a dose response curve for behavioral effects of (R)α-methylhistamine. Male albino CF-1 mice weighing 20-30 g were used. Saline or (R)α-methylhistamine in saline was injected i.p. in a volume ≤0.4 ml. […] Animals were scored for the presence (1) or absence (0) of the behavior and the results were reported as the accumulated score for a 30 minute period (maximum score=9).
To assess the effects of antagonists, they were administered with the (R)α-methylhistamine in saline.

histamine H3 receptors = conditions: cited from earlier work
[3] = animal toxicity studies or clinical usage; cited from earlier work
[4] = dogs, 162 mg/kg/day, repeated dose; cited from earlier work
[5] = peptic ulcer patients; cited from earlier work
[6] = Toxicity observed in testing to date; type: in vivo; conditions: all testing to date, even at high doses
[7] = test system: adenosine, excitory or inhibitory amino acid, dopamine, serotonin, or a broad range of petidergic receptors, or to ion channel proteins, peptide factor or …; test: NOVASCREEN receptor selectivity study, panel as a whole; type: binding; conditions: 10^-5 M
ANF (rat) = test: NOVASCREEN receptor selectivity assay; type: binding; conditions: 10^-5 M
From the text: (§1) represent the average of duplicate tubes at each of the concentrations

Adenosine = test: NOVASCREEN receptor selectivity assay; type: binding; conditions: 10^-5 M
From the text: as §1

[8] = test system: Adenylate Cyclase (Forskolin); test: NOVASCREEN receptor selectivity assay; type: binding; conditions: 10^-5 M
From the text: as §1

Angiotensin = test: NOVASCREEN receptor selectivity assay; type: binding; conditions: 10^-5 M
From the text: as §1

Arg-Vasopressin V1 = test: NOVASCREEN receptor selectivity assay; type: binding; conditions: 10^-5 M
From the text: as §1

Benzodiazephine = test: NOVASCREEN receptor selectivity assay; type: binding; conditions: 10^-5 M
From the text: as §1

Bombesin = test: NOVASCREEN receptor selectivity assay; type: binding; conditions: 10^-5 M
From the text: as §1

CCK Central = test: NOVASCREEN receptor selectivity assay; type: binding; conditions: 10^-5 M
From the text: as §1

CCK Peripheral = test: NOVASCREEN receptor selectivity assay; type: binding; conditions: 10^-5 M
From the text: as §1

[9] = test system: Calcium channel (Nifedipine); test: NOVASCREEN receptor selectivity assay; type: binding; conditions: 10^-5 M
From the text: as §1

Chloride channel = test: NOVASCREEN receptor selectivity assay; type: binding; conditions: 10^-5 M
From the text: as §1

Dopamine 1 = test: NOVASCREEN receptor selectivity assay; type: binding; conditions: 10^-5 M
From the text: as §1

Dopamine 2 = test: NOVASCREEN receptor selectivity assay; type: binding; conditions: 10^-5 M
From the text: as §1

EGF = test: NOVASCREEN receptor selectivity assay; type: binding; conditions: 10^-5 M
From the text: as §1

GABAA = test: NOVASCREEN receptor selectivity assay; type: binding; conditions: 10^-5 M
From the text: as §1

GABAB = test: NOVASCREEN receptor selectivity assay; type: binding; conditions: 10^-5 M
From the text: as §1

Glycine (Inhibitory) = test: NOVASCREEN receptor selectivity assay; type: binding; conditions: 10^-5 M
From the text: as §1

Glycine (excitatory) = test: NOVASCREEN receptor selectivity assay; type: binding; conditions: 10^-5 M
From the text: as §1

Inositol Triphosphate = test: NOVASCREEN receptor selectivity assay; type: binding; conditions: 10^-5 M
From the text: as §1

Kainate = test: NOVASCREEN receptor selectivity assay; type: binding; conditions: 10^-5 M
From the text: as §1

MK-801 = test: NOVASCREEN receptor selectivity assay; type: binding; conditions: 10^-5 M
From the text: as §1

NGF = test: NOVASCREEN receptor selectivity assay; type: binding; conditions: 10^-5 M
From the text: as §1

NMDA = test: NOVASCREEN receptor selectivity assay; type: binding; conditions: 10^-5 M
From the text: as §1

NPY = test: NOVASCREEN receptor selectivity assay; type: binding; conditions: 10^-5 M
From the text: as §1

Neurotensin = test: NOVASCREEN receptor selectivity assay; type: binding; conditions: 10^-5 M
From the text: as §1

PCP = test: NOVASCREEN receptor selectivity assay; type: binding; conditions: 10^-5 M
From the text: as §1

Potassium channel = test: NOVASCREEN receptor selectivity assay; type: binding; conditions: 10^-5 M
From the text: as §1

[10] = test system: Protein Kinase C (Phorbol Ester); test: NOVASCREEN receptor selectivity assay; type: binding; conditions: 10^-5 M
From the text: as §1

[11] = test system: Quisqualate (Excitatory Amino Acids); test: NOVASCREEN receptor selectivity assay; type: binding; conditions: 10^-5 M
From the text: as §1

Serotonin 1 = test: NOVASCREEN receptor selectivity assay; type: binding; conditions: 10^-5 M
From the text: as §1

Serotonin 2 = test: NOVASCREEN receptor selectivity assay; type: binding; conditions: 10^-5 M
From the text: as §1

Somatostatin = test: NOVASCREEN receptor selectivity assay; type: binding; conditions: 10^-5 M
From the text: as §1

Substance K = test: NOVASCREEN receptor selectivity assay; type: binding; conditions: 10^-5 M
From the text: as §1

Substance P = test: NOVASCREEN receptor selectivity assay; type: binding; conditions: 10^-5 M
From the text: as §1

VIP = test: NOVASCREEN receptor selectivity assay; type: binding; conditions: 10^-5 M
From the text: as §1

[12] = test system: Calcium channel (w-Conotoxin); type: binding; conditions: 10^-5 M

S=C(NC1CCCCC1)N1CCC(c2cnc[nH]2)CC1 [Thioperamide]
binding of [3H]-Nα-methylhistamine to cortical H3 receptors / blood-brain barrier penetration ([1]; i.p. 2, 5, and 10 mg/kg, 15 min after injection): decreased the binding of [^3 H]-Nα-methylhistamine to H3 receptors in the cortex
behavior ([2]; thioperamide alone, without agonist): very active, exhibiting normal behaviors
inhibition of soporific effect of (R)α-methylhistamine (histamine H3 -receptor; agonist 30 mg/kg): able to inhibit the soporific effect
dose required to inhibit histamine release from the brain (histamine H3 receptors; rats): relatively high doses are required in vivo
blood-brain-barrier penetration (histamine H3 receptors; suggested by Ganellin et al.): poor penetration through the blood-brain-barrier

CN/C(=N/CCSCc1nc[nH]c1C)NC#N [cimetidine]
granulocytopenia or other side effects [3]: did not cause granulocytopenia, or any other side effects

C[C@@H](N)Cc1c[nH]cn1 [(R)α-methylhistamine]
sleeping ([2]; i.p. 15 to 35 mg/kg, one hour after injection, also evident at 30 minutes): dose-dependent (range of 15 to 35 mg/kg) increase in sleeping

C/N=C(\S)NCCSCc1[nH]cnc1C [metiamide]
agranulocytosis [4]: incidences of agranulocytosis
granulocytopenia [5]: low incidence of granulocytopenia

O=C(CCCCC1CCCCC1)N1CCC(c2c[nH]cn2)CC1 [Compound 1, 4-(1-CYCLOHEXYLVALEROYL-4-PIPERIDYL) 1H-IMIDAZOLE]
blood-brain barrier penetration ([1]; i.p. 50 and 70 mg/kg, one hour after injection): penetrates the blood-brain barrier
inhibition of soporific effect of (R)α-methylhistamine (histamine H3 -receptor; agonist 25 mg/kg): inhibited the soporific effect
toxicity [6]: no toxicity
significant binding to other receptors [7]: no significant binding
Initial Percent Inhibition (Average; N = 2) (ANF (rat)): 0.1%
Initial Percent Inhibition (Average; N = 2) (Adenosine): -3.0%
Initial Percent Inhibition (Average; N = 2) [8]: 2.1%
Initial Percent Inhibition (Average; N = 2) (Angiotensin): 6.5%
Initial Percent Inhibition (Average; N = 2) (Arg-Vasopressin V1): 10.1%
Initial Percent Inhibition (Average; N = 2) (Benzodiazephine): 2.7%
Initial Percent Inhibition (Average; N = 2) (Bombesin): -5.5%
Initial Percent Inhibition (Average; N = 2) (CCK Central): 18.6%
Initial Percent Inhibition (Average; N = 2) (CCK Peripheral): 6.9%
Initial Percent Inhibition (Average; N = 2) [9]: 8.1%
Initial Percent Inhibition (Average; N = 2) (Chloride channel): -3.4%
Initial Percent Inhibition (Average; N = 2) (Dopamine 1): 6.4%
Initial Percent Inhibition (Average; N = 2) (Dopamine 2): 3.5%
Initial Percent Inhibition (Average; N = 2) (EGF): 18.1%
Initial Percent Inhibition (Average; N = 2) (GABAA): 0.6%
Initial Percent Inhibition (Average; N = 2) (GABAB): 0.0%
Initial Percent Inhibition (Average; N = 2) (Glycine (Inhibitory)): 17.4%
Initial Percent Inhibition (Average; N = 2) (Glycine (excitatory)): 1.8%
Initial Percent Inhibition (Average; N = 2) (Inositol Triphosphate): 9.2%
Initial Percent Inhibition (Average; N = 2) (Kainate): 42.1%
Initial Percent Inhibition (Average; N = 2) (MK-801): -8.6%
Initial Percent Inhibition (Average; N = 2) (NGF): 17.1%
Initial Percent Inhibition (Average; N = 2) (NMDA): -4.5%
Initial Percent Inhibition (Average; N = 2) (NPY): -8.7%
Initial Percent Inhibition (Average; N = 2) (Neurotensin): -10.5%
Initial Percent Inhibition (Average; N = 2) (PCP): 9.7%
Initial Percent Inhibition (Average; N = 2) (Potassium channel): 7.7%
Initial Percent Inhibition (Average; N = 2) [10]: 0.9%
Initial Percent Inhibition (Average; N = 2) [11]: -1.8%
Initial Percent Inhibition (Average; N = 2) (Serotonin 1): -3.6%
Initial Percent Inhibition (Average; N = 2) (Serotonin 2): 10.5%
Initial Percent Inhibition (Average; N = 2) (Somatostatin): 4.1%
Initial Percent Inhibition (Average; N = 2) (Substance K): 29.2%
Initial Percent Inhibition (Average; N = 2) (Substance P): 20.0%
Initial Percent Inhibition (Average; N = 2) (VIP): 17.1%
Initial Percent Inhibition (Average; N = 2) [12]: 1.9%

O=C(CCCCC1CCCCC1)N1CCC(c2c[nH]cn2)CC1 [Compound 2016]
reversal of soporific effect of R(-)-alphamethylhistamine (histamine H3 -receptor; both drugs administered peripherally): reverses the soporific effect
